Reference: patent US9255295B2, “Method for evaluating the sensitizing potential of a test compound” (IMMUNOSEARCH, priority 2010, dated 2016)

Test system: genes specific for sensitization (BRAK, CTSS, DAPK2, FABP4, HSP27, IL18, HSP90, IL1R2, TPSAB1, CXCR1, DEFB1, DHFR, EHF, IVL, KRT4, MELANA, NGAL, PDZK1IP1, PI3 …)
Assay: Expression of the other (non-ARE) sensitization-specific genes in EPISKIN reconstructed skin (quantitative RT-PCR)
Format: cell-based, human
Settings: for BRAK expression / DHFR expression / HSP90 expression / IL18 expression / KRT4 expression / MELANA expression / PDZK1iP1 expression / SERPINB3 expression: compared to the control

CC=Cc1ccc(O)c(OC)c1 [Isoeugenol]
BRAK NUMBER OF GENES grade (0.1%): 0 (if this expression is lower, the grade is 0)
CTSS expression compared to control (0.1%): 0.9
CTSS grade (NUMBER OF GENES) (0.1%): 0 (if this expression is lower, the grade is 0)
CXCR1 expression compared to control (0.1%): 0.7
CXCR1 grade (NUMBER OF GENES) (0.1%): 0 (if this expression is lower, the grade is 0)
DAPK2 expression compared to control (0.1%): 1.1
DAPK2 grade (NUMBER OF GENES) (0.1%): 0 (if this expression is lower, the grade is 0)
DEFB1 expression compared to control (0.1%): 1.0
DEFB1 grade (NUMBER OF GENES) (0.1%): 0 (if this expression is lower, the grade is 0)
DHFR NUMBER OF GENES grade (0.1%): 0 (if this expression is lower, the grade is 0)
EHF expression compared to control (0.1%): 1.5
EHF grade (NUMBER OF GENES) (0.1%): 1 (If the expression is greater than 1.3 compared to the control, a grade of 11s given)
FABP4 expression compared to control (0.1%): 0.8
FABP4 grade (NUMBER OF GENES) (0.1%): 0 (if this expression is lower, the grade is 0)
HSP27 expression compared to control (0.1%): 1.0
HSP27 grade (NUMBER OF GENES) (0.1%): 0 (if this expression is lower, the grade is 0)
HSP90 NUMBER OF GENES grade (0.1%): 0 (if this expression is lower, the grade is 0)
IL18 NUMBER OF GENES grade (0.1%): 0 (if this expression is lower, the grade is 0)
IVL expression compared to control (0.1%): 1.3
IVL grade (NUMBER OF GENES) (0.1%): 1 (If the expression is greater than 1.3 compared to the control, a grade of 11s given)
KRT4 NUMBER OF GENES grade (0.1%): 0 (if this expression is lower, the grade is 0)
MELANA NUMBER OF GENES grade (0.1%): 0 (if this expression is lower, the grade is 0)
NGAL expression compared to control (0.1%): 1.1
NGAL grade (NUMBER OF GENES) (0.1%): 0 (if this expression is lower, the grade is 0)
P13 expression compared to control (0.1%): 1.1
P13 grade (NUMBER OF GENES) (0.1%): 0 (if this expression is lower, the grade is 0)
PDZK1iP1 NUMBER OF GENES grade (0.1%): 0 (if this expression is lower, the grade is 0)
SENS >1.3 (number of genes) (0.1%): 2
SERPINB3 NUMBER OF GENES grade (0.1%): 0 (if this expression is lower, the grade is 0)
TOTAL SENS (number of genes) (0.1%): 2
BRAK expression (0.1%): 0.6
DHFR expression (0.1%): 0.8
HSP90 expression (0.1%): 0.9
IL18 expression (0.1%): 0.6
KRT4 expression (0.1%): 1.2
MELANA expression (0.1%): 0.9
PDZK1iP1 expression (0.1%): 1.0
SERPINB3 expression (0.1%): 1.2
BRAK NUMBER OF GENES grade (1%): 0 (if this expression is lower, the grade is 0)
CTSS expression compared to control (1%): 0.8
CTSS grade (NUMBER OF GENES) (1%): 0 (if this expression is lower, the grade is 0)
CXCR1 expression compared to control (1%): 1.1
CXCR1 grade (NUMBER OF GENES) (1%): 0 (if this expression is lower, the grade is 0)
DAPK2 expression compared to control (1%): 0.9
DAPK2 grade (NUMBER OF GENES) (1%): 0 (if this expression is lower, the grade is 0)
DEFB1 expression compared to control (1%): 1.1
DEFB1 grade (NUMBER OF GENES) (1%): 0 (if this expression is lower, the grade is 0)
DHFR NUMBER OF GENES grade (1%): 0 (if this expression is lower, the grade is 0)
EHF expression compared to control (1%): 1.2
EHF grade (NUMBER OF GENES) (1%): 0 (if this expression is lower, the grade is 0)
FABP4 expression compared to control (1%): 0.9
FABP4 grade (NUMBER OF GENES) (1%): 0 (if this expression is lower, the grade is 0)
HSP27 expression compared to control (1%): 0.8
HSP27 grade (NUMBER OF GENES) (1%): 0 (if this expression is lower, the grade is 0)
HSP90 NUMBER OF GENES grade (1%): 1 (If the expression is greater than 1.3 compared to the control, a grade of 11s given)
IL18 NUMBER OF GENES grade (1%): 0 (if this expression is lower, the grade is 0)
IVL expression compared to control (1%): 1.4
IVL grade (NUMBER OF GENES) (1%): 1 (If the expression is greater than 1.3 compared to the control, a grade of 11s given)
KRT4 NUMBER OF GENES grade (1%): 0 (if this expression is lower, the grade is 0)
MELANA NUMBER OF GENES grade (1%): 1 (If the expression is greater than 1.3 compared to the control, a grade of 11s given)
NGAL expression compared to control (1%): 1.1
NGAL grade (NUMBER OF GENES) (1%): 0 (if this expression is lower, the grade is 0)
P13 expression compared to control (1%): 0.9
P13 grade (NUMBER OF GENES) (1%): 0 (if this expression is lower, the grade is 0)
PDZK1iP1 NUMBER OF GENES grade (1%): 0 (if this expression is lower, the grade is 0)
SENS >1.3 (number of genes) (1%): 5
SERPINB3 NUMBER OF GENES grade (1%): 0 (if this expression is lower, the grade is 0)
TOTAL SENS (number of genes) (1%): 5
BRAK expression (1%): 0.9
DHFR expression (1%): 0.9
HSP90 expression (1%): 1.3
IL18 expression (1%): 1.1
KRT4 expression (1%): 0.8
MELANA expression (1%): 1.4
PDZK1iP1 expression (1%): 1.1
SERPINB3 expression (1%): 1.2
BRAK NUMBER OF GENES grade (10%): 0 (if this expression is lower, the grade is 0)
CTSS expression compared to control (10%): 1.5
CTSS grade (NUMBER OF GENES) (10%): 1 (If the expression is greater than 1.3 compared to the control, a grade of 11s given)
CXCR1 expression compared to control (10%): 1.6
CXCR1 grade (NUMBER OF GENES) (10%): 1 (If the expression is greater than 1.3 compared to the control, a grade of 11s given)
DAPK2 expression compared to control (10%): 0.9
DAPK2 grade (NUMBER OF GENES) (10%): 0 (if this expression is lower, the grade is 0)
DEFB1 expression compared to control (10%): 1.5
DEFB1 grade (NUMBER OF GENES) (10%): 1 (If the expression is greater than 1.3 compared to the control, a grade of 11s given)
DHFR NUMBER OF GENES grade (10%): 0 (if this expression is lower, the grade is 0)
EHF expression compared to control (10%): 1.4
EHF grade (NUMBER OF GENES) (10%): 1 (If the expression is greater than 1.3 compared to the control, a grade of 11s given)
FABP4 expression compared to control (10%): 1.2
FABP4 grade (NUMBER OF GENES) (10%): 0 (if this expression is lower, the grade is 0)
HSP27 expression compared to control (10%): 0.9
HSP27 grade (NUMBER OF GENES) (10%): 0 (if this expression is lower, the grade is 0)
HSP90 NUMBER OF GENES grade (10%): 1 (If the expression is greater than 1.3 compared to the control, a grade of 11s given)
IL18 NUMBER OF GENES grade (10%): 0 (if this expression is lower, the grade is 0)
IVL expression compared to control (10%): 1.9
IVL grade (NUMBER OF GENES) (10%): 1 (If the expression is greater than 1.3 compared to the control, a grade of 11s given)
KRT4 NUMBER OF GENES grade (10%): 0 (if this expression is lower, the grade is 0)
MELANA NUMBER OF GENES grade (10%): 0 (if this expression is lower, the grade is 0)
NGAL expression compared to control (10%): 2.1
NGAL grade (NUMBER OF GENES) (10%): 1 (If the expression is greater than 1.3 compared to the control, a grade of 11s given)
P13 expression compared to control (10%): 1.4
P13 grade (NUMBER OF GENES) (10%): 1 (If the expression is greater than 1.3 compared to the control, a grade of 11s given)
PDZK1iP1 NUMBER OF GENES grade (10%): 0 (if this expression is lower, the grade is 0)
SENS >1.3 (number of genes) (10%): 10
SERPINB3 NUMBER OF GENES grade (10%): 0 (if this expression is lower, the grade is 0)
TOTAL SENS (number of genes) (10%): 10
BRAK expression (10%): 0.8
DHFR expression (10%): 0.9
HSP90 expression (10%): 1.3
IL18 expression (10%): 0.7
KRT4 expression (10%): 1.0
MELANA expression (10%): 0.6
PDZK1iP1 expression (10%): 1.0
SERPINB3 expression (10%): 1.1
BRAK NUMBER OF GENES grade (50%): 0 (if this expression is lower, the grade is 0)
CTSS expression compared to control (50%): 1.4
CTSS grade (NUMBER OF GENES) (50%): 1 (If the expression is greater than 1.3 compared to the control, a grade of 11s given)
CXCR1 expression compared to control (50%): 2.6
CXCR1 grade (NUMBER OF GENES) (50%): 1 (If the expression is greater than 1.3 compared to the control, a grade of 11s given)
DAPK2 expression compared to control (50%): 1.4
DAPK2 grade (NUMBER OF GENES) (50%): 1 (If the expression is greater than 1.3 compared to the control, a grade of 11s given)
DEFB1 expression compared to control (50%): 2.1
DEFB1 grade (NUMBER OF GENES) (50%): 1 (If the expression is greater than 1.3 compared to the control, a grade of 11s given)
DHFR NUMBER OF GENES grade (50%): 0 (if this expression is lower, the grade is 0)
EHF expression compared to control (50%): 2.0
EHF grade (NUMBER OF GENES) (50%): 1 (If the expression is greater than 1.3 compared to the control, a grade of 11s given)
FABP4 expression compared to control (50%): 1.8
FABP4 grade (NUMBER OF GENES) (50%): 1 (If the expression is greater than 1.3 compared to the control, a grade of 11s given)
HSP27 expression compared to control (50%): 1.2
HSP27 grade (NUMBER OF GENES) (50%): 0 (if this expression is lower, the grade is 0)
HSP90 NUMBER OF GENES grade (50%): 1 (If the expression is greater than 1.3 compared to the control, a grade of 11s given)
IL18 NUMBER OF GENES grade (50%): 0 (if this expression is lower, the grade is 0)
IVL expression compared to control (50%): 2.8
IVL grade (NUMBER OF GENES) (50%): 1 (If the expression is greater than 1.3 compared to the control, a grade of 11s given)
KRT4 NUMBER OF GENES grade (50%): 0 (if this expression is lower, the grade is 0)
MELANA NUMBER OF GENES grade (50%): 0 (if this expression is lower, the grade is 0)
NGAL expression compared to control (50%): 2.7
NGAL grade (NUMBER OF GENES) (50%): 1 (If the expression is greater than 1.3 compared to the control, a grade of 11s given)
P13 expression compared to control (50%): 1.7
P13 grade (NUMBER OF GENES) (50%): 1 (If the expression is greater than 1.3 compared to the control, a grade of 11s given)
PDZK1iP1 NUMBER OF GENES grade (50%): 0 (if this expression is lower, the grade is 0)
SENS >1.3 (number of genes) (50%): 13
SERPINB3 NUMBER OF GENES grade (50%): 1 (If the expression is greater than 1.3 compared to the control, a grade of 11s given)
TOTAL SENS (number of genes) (50%): 13
BRAK expression (50%): 0.6
DHFR expression (50%): 0.9
HSP90 expression (50%): 1.7
IL18 expression (50%): 0.8
KRT4 expression (50%): 1.2
MELANA expression (50%): 0.4
PDZK1iP1 expression (50%): 1.1
SERPINB3 expression (50%): 1.5
